Experimental findings from patent US20130017174A1, “COMPOSITIONS AND METHODS FOR INCREASING HEALTH AND REDUCING PATHOGENIC BACTERIA IN ANIMALS” (The Board of Trustees of the University of Arkansas, priority 2011, published 2013) are described below.

The test system of this assay is Salmonella enteritidis. Briefly: In vitro testing: SE recovery from inoculated chick starter feed. The assay is classed as cell-based. Conditions: feed with increasing amounts of sodium nitrate (1-1000 ppm), 42° C. for 24 hours, vs control (FIG. 1).

Protocol: Briefly, 1.25 grams of chick starter feed was measured into 13×100 mm borosilicate tubes and autoclaved. Nitrate was mixed into the feed before autoclaving at concentrations of 1000 ppm, 100 ppm, 10 ppm, or 1 ppm (Sodium Nitrate, Sigma Chemical Co., St. Louis, Mo.).
The feed also contained 0.1% lactose as a prebiotic. The feed was suspended in 4.5 mL sterile saline and inoculated with 0.5 mL of Salmonella enteriditis (SE) culture containing approximately 10^4 cfu/ml. The tubes were treated with either 0.6 ml of 10^6 cfu/ml of FloraMax-B11® probiotic or saline as a negative control. After administering the treatment, the tubes were agitated and incubated at 42° C. for 24 hours. The tubes then were agitated and the content was serially diluted and plated on Brilliant Green Agar (BGA) containing novobiocin (250 ml) and nalidixic acid (20 μl/ml) to select for SE. Typical SE colonies were counted after 24 hours of incubation.

Turning to `O=[N+]([O-])[O-].[Na+]` [sodium nitrate, Sodium Nitrate], the “recovery of SE” value was “decreased recovery of SE as compared to the control”.
